Measurements reported in patent US9365584B2, “Thieno [2,3-B] pyridinedione activators of AMPK and therapeutic uses thereof” (Poxel, priority 2009, dated 2016).

Tested on: AMPK
Experiment: AMPK enzyme activity assay (Delfia technology, AMARA peptide substrate)
Format: biochemical
Conditions: compound at 30 μM vs AMP at 200 μM
Method: The following biological test allows the determination of the efficacy of compounds of formula (1) onto AMPK protein.
AMPK enzyme activities were assayed by using a Delfia technology. AMPK enzyme activities were carried out in microtiter plates in the presence of a synthetic peptide substrate (AMARAASAAALARRR, the “AMARA” peptide) and activators in serial dilutions. Reactions were initiated by the addition of AMPK. Enzyme activity was assayed by using an anti-phosphoserine antibody to measure the quantity of phosphate incorporated into the AMARAA.
No: Number of the molecule
Activity: Ratio between the % of control (basal activity) of compound of formula (1) at 30 μM and the % of control (basal activity) of AMP (natural substrate) at 200 μM.

Row | Activity: Ratio between the % of control (basal activity) of compound of formula (1) at 30 μM and the % of control (basal activity) of AMP (natural substrate) at 200 μM | Structure (SMILES)
1 | A (0%<A<50%) | Cc1ccc(-c2c(Cl)sc3c2C(=O)C(C)(c2ccccc2)C(=O)N3)cc1 (stereo not shown) [No 34, 2-chloro-5-methyl-5-phenyl-3-(p-tolyl)-7H-thieno[2,3-b]pyridine-4,6-dione]
2 | A (0%<A<50%) | COc1ccc(C2(C)C(=O)Nc3sc(Cl)c(-c4ccccc4)c3C2=O)cc1 (stereo not shown) [No 35, 2-chloro-5-(4-methoxyphenyl)-5-methyl-3-phenyl-7H-thieno[2,3-b]pyridine-4,6-dione]
3 | A (0%<A<50%) | COc1ccc(-c2c(Cl)sc3c2C(=O)C(C)(c2ccccc2)C(=O)N3)cc1 (stereo not shown) [No 36, 2-chloro-3-(4-methoxyphenyl)-5-methyl-5-phenyl-7H-thieno[2,3-b]pyridine-4,6-dione]
4 | A (0%<A<50%) | CC1(c2ccc(F)cc2)C(=O)Nc2sc(Cl)c(-c3cccc(F)c3)c2C1=O (stereo not shown) [No 37, 2-chloro-3-(3-fluorophenyl)-5-(4-fluorophenyl)-5-methyl-7H-thieno[2,3-b]pyridine-4,6-dione]
5 | A (0%<A<50%) | COc1cccc(C2(C)C(=O)Nc3sc(Cl)c(-c4ccccc4)c3C2=O)c1 (stereo not shown) [No 38, 2-chloro-5-(3-methoxyphenyl)-5-methyl-3-phenyl-7H-thieno[2,3-b]pyridine-4,6-dione]
6 | A (0%<A<50%) | COc1ccc(-c2c(Cl)sc3c2C(=O)C(C)(c2ccc(F)cc2)C(=O)N3)cc1 (stereo not shown) [No 39, 2-chloro-5-(4-fluorophenyl)-3-(4-methoxyphenyl)-5-methyl-7H-thieno[2,3-b]pyridine-4,6-dione]
7 | A (0%<A<50%) | COc1cccc(-c2c(Cl)sc3c2C(=O)C(C)(c2ccccc2)C(=O)N3)c1 (stereo not shown) [No 40, 2-chloro-3-(3-methoxyphenyl)-5-methyl-5-phenyl-7H-thieno[2,3-b]pyridine-4,6-dione]
8 | A (0%<A<50%) | COc1cccc(-c2c(Cl)sc3c2C(=O)C(C)(c2ccc(C)cc2)C(=O)N3)c1 (stereo not shown) [No 41, 2-chloro-3-(3-methoxyphenyl)-5-methyl-5-(p-tolyl)-7H-thieno[2,3-b]pyridine-4,6-dione]
9 | A (0%<A<50%) | COc1cccc(-c2c(Cl)sc3c2C(=O)C(C)(c2ccc(F)cc2)C(=O)N3)c1 (stereo not shown) [No 42, 2-chloro-5-(4-fluorophenyl)-3-(3-methoxyphenyl)-5-methyl-7H-thieno[2,3-b]pyridine-4,6-dione]
10 | A (0%<A<50%) | COc1ccc(C2(C)C(=O)Nc3sc(Cl)c(-c4cccc(OC)c4)c3C2=O)cc1 (stereo not shown) [No 43, 2-chloro-3-(3-methoxyphenyl)-5-(4-methoxyphenyl)-5-methyl-7H-thieno[2,3-b]pyridine-4,6-dione]
11 | A (0%<A<50%) | COc1cccc(-c2c(Cl)sc3c2C(=O)C(C)(c2cccc(C)c2)C(=O)N3)c1 (stereo not shown) [No 44, 2-chloro-3-(3-methoxyphenyl)-5-methyl-5-(m-tolyl)-7H-thieno[2,3-b]pyridine-4,6-dione]
12 | A (0%<A<50%) | Cc1ccc(-c2c(Cl)sc3c2C(=O)C(C)(c2cccc(F)c2)C(=O)N3)cc1 (stereo not shown) [No 45, 2-chloro-5-(3-fluorophenyl)-5-methyl-3-(p-tolyl)-7H-thieno[2,3-b]pyridine-4,6-dione]
13 | B (50%≦B<75%) | O=C1Nc2sc(Cl)c(-c3ccc(F)cc3O)c2C(=O)C1(F)c1ccccc1 (stereo not shown) [No 46, 2-chloro-5-fluoro-3-(4-fluoro-2-hydroxy-phenyl)-5-phenyl-7H-thieno[2,3-b]pyridine-4,6-dione]
14 | A (0%<A<50%) | Cc1ccccc1-c1c(Cl)sc2c1C(=O)C(C)(c1ccccc1F)C(=O)N2 (stereo not shown) [No 47, 2-chloro-5-(2-fluorophenyl)-5-methyl-3-(o-tolyl)-7H-thieno[2,3-b]pyridine-4,6-dione]
15 | A (0%<A<50%) | COC1(c2ccccc2)C(=O)Nc2sc(Cl)c(-c3ccccc3)c2C1=O (stereo not shown) [No 48, 2-chloro-5-methoxy-3,5-diphenyl-7H-thieno[2,3-b]pyridine-4,6-dione]
16 | A (0%<A<50%) | CC1(c2ccc(F)cc2)C(=O)Nc2sc(Cl)c(-c3ccc(F)cc3)c2C1=O (stereo not shown) [No 49, 2-chloro-3,5-bis(4-fluorophenyl)-5-methyl-7H-thieno[2,3-b]pyridine-4,6-dione]
17 | A (0%<A<50%) | Cc1ccc(C2(C)C(=O)Nc3sc(Cl)c(-c4ccc(F)cc4)c3C2=O)cc1 (stereo not shown) [No 50, 2-chloro-3-(4-fluorophenyl)-5-methyl-5-(p-tolyl)-7H-thieno[2,3-b]pyridine-4,6-dione]
18 | A (0%<A<50%) | CC1(c2cccc(F)c2)C(=O)Nc2sc(Cl)c(-c3ccc(F)cc3)c2C1=O (stereo not shown) [No 51, 2-chloro-5-(3-fluorophenyl)-3-(4-fluorophenyl)-5-methyl-7H-thieno[2,3-b]pyridine-4,6-dione]
19 | A (0%<A<50%) | COc1ccccc1-c1c(Cl)sc2c1C(=O)C(C)(c1ccc(F)cc1)C(=O)N2 (stereo not shown) [No 52, 2-chloro-5-(4-fluorophenyl)-3-(2-methoxyphenyl)-5-methyl-7H-thieno[2,3-b]pyridine-4,6-dione]
20 | A (0%<A<50%) | COc1ccc(C2(C)C(=O)Nc3sc(Cl)c(-c4ccc(F)cc4)c3C2=O)cc1 (stereo not shown) [No 53, 2-chloro-3-(4-fluorophenyl)-5-(4-methoxyphenyl)-5-methyl-7H-thieno[2,3-b]pyridine-4,6-dione]
21 | A (0%<A<50%) | CC1(c2ccc(S(C)(=O)=O)cc2)C(=O)Nc2sc(Cl)c(-c3ccc(F)cc3)c2C1=O (stereo not shown) [No 54, 2-chloro-3-(4-fluorophenyl)-5-methyl-5-(4-methyl-sulfonylphenyl)-7H-thieno[2,3-b]pyridine-4,6-dione]
22 | B (50%≦B<75%) | CC1(c2ccccc2F)C(=O)Nc2sc(Cl)c(-c3ccc(F)cc3)c2C1=O (stereo not shown) [No 55, 2-chloro-5-(2-fluorophenyl)-3-(4-fluorophenyl)-5-methyl-7H-thieno[2,3-b]pyridine-4,6-dione]
23 | A (0%<A<50%) | COc1ccccc1-c1c(Cl)sc2c1C(=O)C(C)(c1cccc(C)c1)C(=O)N2 (stereo not shown) [No 56, 2-chloro-3-(2-methoxyphenyl)-5-methyl-5-(m-tolyl)-7H-thieno[2,3-b]pyridine-4,6-dione]
24 | B (50%≦B<75%) | Cc1ccc(-c2c(Cl)sc3c2C(=O)C(C)(c2ccc(F)cc2)C(=O)N3)cc1 (stereo not shown) [No 57, 2-chloro-5-(4-fluorophenyl)-5-methyl-3-(p-tolyl)-7H-thieno[2,3-b]pyridine-4,6-dione]
25 | C (C≧75%) | COc1cccc(C2(C)C(=O)Nc3sc(Cl)c(-c4ccccc4C)c3C2=O)c1 (stereo not shown) [No 58, 2-chloro-5-(3-methoxyphenyl)-5-methyl-3-(o-tolyl)-7H-thieno[2,3-b]pyridine-4,6-dione]
26 | C (C≧75%) | Cc1cccc(C2(C)C(=O)Nc3sc(Cl)c(-c4ccccc4C)c3C2=O)c1 (stereo not shown) [No 59, 2-chloro-5-methyl-5-(m-tolyl)-3-(o-tolyl)-7H-thieno[2,3-b]pyridine-4,6-dione]
27 | C (C≧75%) | Cc1ccc(C2(C)C(=O)Nc3sc(Cl)c(-c4cccc(F)c4)c3C2=O)cc1 (stereo not shown) [No 60, 2-chloro-3-(3-fluorophenyl)-5-methyl-5-(p-tolyl)-7H-thieno[2,3-b]pyridine-4,6-dione]
28 | C (C≧75%) | COc1cccc(-c2c(Cl)sc3c2C(=O)C(C)(c2cccc(OC)c2)C(=O)N3)c1 (stereo not shown) [No 61, 2-chloro-3,5-bis(3-methoxyphenyl)-5-methyl-7H-thieno[2,3-b]pyridine-4,6-dione]
29 | C (C≧75%) | COc1cccc(-c2c(Cl)sc3c2C(=O)C(C)(c2cccc(F)c2)C(=O)N3)c1 (stereo not shown) [No 62, 2-chloro-5-(3-fluorophenyl)-3-(3-methoxyphenyl)-5-methyl-7H-thieno[2,3-b]pyridine-4,6-dione]
30 | C (C≧75%) | COc1cccc(C2(C)C(=O)Nc3sc(Cl)c(-c4ccc(F)cc4)c3C2=O)c1 (stereo not shown) [No 63, 2-chloro-3-(4-fluorophenyl)-5-(3-methoxyphenyl)-5-methyl-7H-thieno[2,3-b]pyridine-4,6-dione]

Same assay, conditions: compound at 30 μM vs AMP at 200 μM; listed as 2

Row | Activity: Ratio between the % of control (basal activity) of compound of formula (1) at 30 μM and the % of control (basal activity) of AMP (natural substrate) at 200 μM | Structure (SMILES)
31 | B (50%≦B<75%) | COC1(c2ccccc2)C(=O)Nc2sc(Cl)c(-c3ccccc3)c2C1=O (stereo not shown) [No 48, 2-chloro-5-methoxy-3,5-diphenyl-7H-thieno[2,3-b]pyridine-4,6-dione]
